Measurements as given in patent publication US11938121B2, “Treatment of infections and biofilm formation using a cellulose synthase inhibitor” (Purdue Research Foundation, priority 2020, dated 2024).

Legend:
[1] = biological target: T1, YFP-AtCESA6 cellulose synthase complexes (CSCs) in root epidermal cells (Arabidopsis thaliana, UniProt Q94JQ6); assay: Spinning-disk confocal live-cell imaging of CSC trafficking; format: cell-based; settings: 6 μM
T1 construct: expressed in transfected cells; host or cells: transgenic Arabidopsis thaliana YFP-AtCESA6 seedlings (total protein extract for DARTS; root epidermal cells for imaging)
Experimental: For SDCM live cell imaging, seedlings were grown vertically for 5 d, and images were taken from the 2nd or 3rd epidermal cell below the first obvious root hair in the root elongation zone. Two thin strips of double-sided adhesive tape were placed on top of glass slides approximately 2 cm apart. 100 μl of ½-strength MS liquid growth medium containing 0.1% DMSO or 6 μM of ES20-1 was applied to the slide, and seedlings were mounted in the liquid medium. A 22×40 mm cover glass was placed on top of the double-sided tape for imaging. For longer term imaging during CESA velocity analysis, seedlings were mounted on a piece of 1-mm thick 0.6% Phytagel pad affixed to the glass slide to minimize compression and liquid evaporation.
To examine the cellular localization of YFP-AtCESA6 and YFP-AtCESA6; ManI-CFP, SDCM imaging was performed using a CSU-X1-A1 Yokogawa scanning unit mounted on an Olympus IX-83 microscope equipped with a 100×/1.4NA UPlanSApo oil objective (Olympus) and an Andor iXon Ultra 897BV EMCCD camera (Andor Technology). YFP and CFP fluorescence was excited with 515-nm and 445-nm laser lines and emission collected through 542/27-nm and 479/40-nm filters, respectively.
For fluorescence recovery after photobleaching (FRAP) experiments, images were collected using a Zeiss Observer Z.1 microscope, equipped with a Yokogawa CSU-X1 head and a 100×/1.46 NA PlanApo objective (Zeiss). For the PM-localized CESA6 FRAP, photobleaching was performed with a Vector scanner (Intelligent Imaging Innovations) with a 515-nm laser line at 100% power and 1 ms/scan. Timelapse images were collected at the PM with a 10-s interval for 64 frames, with photobleaching in a small region (44.2 μm^2) after the 4th frame, and recovery for total 10 min.
Image analysis was performed using ImageJ. For CESA particle density analyses, regions of interest (ROIs) without abundant Golgi signals were chosen using the Freehand selection tool. CESA particles were detected automatically on 8-bit images using the Find Maxima tool with the same noise threshold for all images. CESA particle density for each ROI was calculated by dividing the number of particles by the ROI area. To analyze CESA particle dynamics, 5-min time-lapse series with 5-s intervals were collected. Average intensity projections were generated to identify the trajectories of CSC particles. Image drift was corrected using the StackReg plugin (Thevenaz et al., 1998). Kymographs were generated, and the velocities of CESA particles were measured as the reciprocal of the slope of individual CESA particles in the kymographs. To quantify cortical vesicles, 1 μm z-series stack with 0.2 μm as the step size and 20-s time-lapses were collected. The focal plane at 0.4 μm below the PM was used for cortical SmaCC analysis. Small particles showing motility in time-lapse series were considered to be SmaCCs. For the FRAP assay of PM-localized CSCs, a smaller area (16 μm^2) within the bleached region was used for analyses. The CSC delivery events during the first 5 min of recovery were manually counted according to the criteria described previously (Li et al., Proc. Natl. Acad Sci. USA, 2016, 113, 11348-11353). […] The CSC delivery rate was calculated by dividing the number of delivery events by the measured area and time.

[2] = tested on: PIN2-GFP, GFP-PIP2a, GFP-HDEL, VHA-a1-GFP, YFP-Got1p; assay: Live-cell imaging of fluorescence-tagged marker proteins; format: cell-based, Arabidopsis thaliana; settings: 6 μM, 2 h
Experimental: To test the effect of ES20-1 on cellular localization of endomembrane marker proteins, transgenic plants expressing different fluorescence-tagged proteins were grown on ½-strength MS agar plates for 5 d under continuous light. The seedlings were incubated in ½-strength MS liquid media supplemented with 6 μM ES20-1 for 2 h. The images were collected by Zeiss 710 laser scanning confocal microscope equipped with 40×/1.2 NA water objective. For images of GFP-tagged proteins, the 488-nm laser line was used as an excitation source and emission light at 493-598 nm was collected. For images of YFP-tagged proteins, the 514-nm laser line was used as an excitation source and the emission light at 519-621 nm was collected.

T1 sequence (O48946 whole entry): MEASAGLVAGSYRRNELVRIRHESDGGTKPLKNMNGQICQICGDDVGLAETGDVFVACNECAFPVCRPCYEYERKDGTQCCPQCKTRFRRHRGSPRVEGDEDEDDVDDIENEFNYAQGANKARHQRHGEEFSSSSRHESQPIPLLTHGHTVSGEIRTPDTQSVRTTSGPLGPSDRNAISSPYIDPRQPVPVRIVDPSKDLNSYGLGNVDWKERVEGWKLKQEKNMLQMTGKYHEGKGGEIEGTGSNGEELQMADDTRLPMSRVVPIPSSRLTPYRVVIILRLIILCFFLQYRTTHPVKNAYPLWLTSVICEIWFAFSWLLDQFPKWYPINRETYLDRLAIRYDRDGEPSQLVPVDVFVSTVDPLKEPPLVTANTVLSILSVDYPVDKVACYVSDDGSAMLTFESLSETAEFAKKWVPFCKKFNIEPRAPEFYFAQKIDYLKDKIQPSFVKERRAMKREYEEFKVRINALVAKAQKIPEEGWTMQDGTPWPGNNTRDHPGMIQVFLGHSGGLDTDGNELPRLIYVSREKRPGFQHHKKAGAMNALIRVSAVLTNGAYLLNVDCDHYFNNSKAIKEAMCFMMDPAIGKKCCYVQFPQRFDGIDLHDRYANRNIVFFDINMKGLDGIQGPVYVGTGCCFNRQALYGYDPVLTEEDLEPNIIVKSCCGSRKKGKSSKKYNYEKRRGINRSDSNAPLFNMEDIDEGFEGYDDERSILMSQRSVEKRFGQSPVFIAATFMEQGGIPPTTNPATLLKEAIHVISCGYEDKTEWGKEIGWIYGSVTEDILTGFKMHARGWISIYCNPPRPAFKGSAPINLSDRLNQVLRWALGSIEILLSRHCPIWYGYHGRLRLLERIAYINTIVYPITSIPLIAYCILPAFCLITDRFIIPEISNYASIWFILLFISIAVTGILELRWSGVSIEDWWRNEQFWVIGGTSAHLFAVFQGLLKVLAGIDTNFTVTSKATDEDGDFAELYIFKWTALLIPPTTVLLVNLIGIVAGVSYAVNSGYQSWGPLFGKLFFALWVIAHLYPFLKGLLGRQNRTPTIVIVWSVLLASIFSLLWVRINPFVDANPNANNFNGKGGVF
T1 sequence (Q941L0 whole entry, further chain): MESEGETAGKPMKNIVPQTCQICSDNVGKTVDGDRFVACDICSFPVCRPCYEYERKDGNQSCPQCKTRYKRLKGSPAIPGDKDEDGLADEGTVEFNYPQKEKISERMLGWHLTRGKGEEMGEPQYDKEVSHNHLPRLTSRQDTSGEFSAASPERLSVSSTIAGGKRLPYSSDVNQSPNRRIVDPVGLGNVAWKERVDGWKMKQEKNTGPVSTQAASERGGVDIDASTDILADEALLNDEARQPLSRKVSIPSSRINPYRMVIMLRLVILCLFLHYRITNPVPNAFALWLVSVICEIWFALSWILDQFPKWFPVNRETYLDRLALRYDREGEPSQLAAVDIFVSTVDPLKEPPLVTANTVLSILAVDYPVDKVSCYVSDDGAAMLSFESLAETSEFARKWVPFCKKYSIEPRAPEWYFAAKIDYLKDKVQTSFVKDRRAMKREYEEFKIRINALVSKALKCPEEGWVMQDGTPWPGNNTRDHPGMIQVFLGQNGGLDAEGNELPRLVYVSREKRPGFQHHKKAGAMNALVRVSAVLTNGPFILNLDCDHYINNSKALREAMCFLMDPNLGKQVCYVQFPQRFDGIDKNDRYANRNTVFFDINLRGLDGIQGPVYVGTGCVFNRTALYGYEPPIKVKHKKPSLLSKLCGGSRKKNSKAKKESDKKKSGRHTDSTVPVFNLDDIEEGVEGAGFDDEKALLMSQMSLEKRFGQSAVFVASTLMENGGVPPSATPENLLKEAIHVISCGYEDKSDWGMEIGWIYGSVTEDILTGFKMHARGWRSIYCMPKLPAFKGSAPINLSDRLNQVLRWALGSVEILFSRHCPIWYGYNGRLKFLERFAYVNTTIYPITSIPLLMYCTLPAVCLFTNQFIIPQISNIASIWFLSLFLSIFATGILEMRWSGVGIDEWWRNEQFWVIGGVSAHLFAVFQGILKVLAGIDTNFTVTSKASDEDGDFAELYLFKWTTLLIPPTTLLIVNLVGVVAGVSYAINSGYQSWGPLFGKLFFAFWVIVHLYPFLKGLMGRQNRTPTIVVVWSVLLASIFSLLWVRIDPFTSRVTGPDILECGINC
T1 sequence (Q94JQ6 whole entry): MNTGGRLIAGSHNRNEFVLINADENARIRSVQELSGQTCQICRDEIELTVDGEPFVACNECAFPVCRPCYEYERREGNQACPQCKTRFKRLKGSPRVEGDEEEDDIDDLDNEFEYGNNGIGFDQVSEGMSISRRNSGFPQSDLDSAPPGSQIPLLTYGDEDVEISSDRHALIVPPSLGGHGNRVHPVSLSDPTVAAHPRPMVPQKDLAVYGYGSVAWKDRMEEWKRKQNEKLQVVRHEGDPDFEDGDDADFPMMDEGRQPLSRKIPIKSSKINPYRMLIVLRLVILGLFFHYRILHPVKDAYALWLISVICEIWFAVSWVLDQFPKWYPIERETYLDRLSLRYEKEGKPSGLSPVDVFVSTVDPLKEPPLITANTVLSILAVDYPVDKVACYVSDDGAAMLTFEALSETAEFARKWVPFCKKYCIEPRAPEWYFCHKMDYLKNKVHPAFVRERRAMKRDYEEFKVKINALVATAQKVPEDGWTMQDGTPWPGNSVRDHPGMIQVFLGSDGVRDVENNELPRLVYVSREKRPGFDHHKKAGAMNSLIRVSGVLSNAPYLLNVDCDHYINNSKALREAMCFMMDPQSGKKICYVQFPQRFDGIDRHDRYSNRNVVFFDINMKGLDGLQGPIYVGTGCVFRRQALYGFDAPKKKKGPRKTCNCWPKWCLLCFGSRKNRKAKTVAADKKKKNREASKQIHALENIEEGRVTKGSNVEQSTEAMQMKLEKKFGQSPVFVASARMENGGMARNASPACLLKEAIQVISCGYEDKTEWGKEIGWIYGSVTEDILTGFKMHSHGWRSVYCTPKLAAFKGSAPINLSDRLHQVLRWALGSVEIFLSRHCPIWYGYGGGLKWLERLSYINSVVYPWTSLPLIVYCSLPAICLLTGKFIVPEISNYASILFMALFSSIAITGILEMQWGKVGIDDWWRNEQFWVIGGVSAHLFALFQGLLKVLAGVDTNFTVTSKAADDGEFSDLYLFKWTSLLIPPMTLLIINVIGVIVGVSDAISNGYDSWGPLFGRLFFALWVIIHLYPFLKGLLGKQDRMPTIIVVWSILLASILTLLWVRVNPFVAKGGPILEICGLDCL

Cc1ccccc1C(=O)NNC(=S)NC(=O)c1ccccc1 [ES20-1]
reduction of CSC delivery rate to PM (FRAP) ([1]; 5 min recovery after photobleaching, vs DMSO): ~35% | CSC delivery rate to PM (FRAP) ([1]; 5 min recovery, mean±SE, n=10 cells): 1.41±0.19 particle/μm^2/h | abundance of cortical SmaCCs ([1]; 10 min, mean±SE, n=24 cells): 7.07±0.34 particle/100 μm^2 | abundance (density) of CSCs at the PM ([1]; 10 min, mean±SE, n=32 cells): 0.64±0.03 particle/μm^2 | decrease of abundance of CSCs at the PM ([1]; 10 min, vs DMSO): ~30% | increase of abundance of cortical SmaCCs ([1]; 10 min, vs DMSO): ~30% | velocity of CSC particles at the PM ([1]; 30 min, mean±SE, n=325): 0.152 ± 0.005 ×10⁻⁶ cm/s | decrease of velocity of CSC particles at the PM ([1]; 30 min, vs DMSO): ~35% | integrated fluorescence intensity of Golgi-localized YFP-AtCESA6 ([1]; 1 h, mean±SE, n=55): 8684.50±535.60 | integrated fluorescence intensity of ManI-CFP ([1]; 1 h, same cell): not affected | increase of integrated fluorescence intensity of Golgi-localized YFP-AtCESA6 ([1]; 1 h, vs DMSO): more than 25% | cellular localization of PIN2-GFP [2]: not significantly affected | cellular localization of organelle marker proteins GFP-PIP2a, GFP-HDEL, VHA-a1-GFP, YFP-Got1p [2]: are not affected
